Laboratory results from PubChem BioAssay (NCI).
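Each compound was tested at five concentrations against cells in 96-well plates for 48 hours. The concentration for full growth arrest is given as TGI.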

Legend:
Experiment in all cases: inhibition of tumour cell growth, NCI panel, 48 h
[1] = tested on: MDA-MB-231 breast
[2] = tested on: MOLT-4 leukemia
[3] = tested on: UO-31 renal
[4] = tested on: ACHN renal
[5] = tested on: SF-268 CNS
[6] = tested on: HOP-62 NSCLC
[7] = tested on: BT-549 breast
[8] = tested on: HCT-116 colon
[9] = tested on: RPMI-8226 leukemia
[10] = tested on: SK-MEL-2 melanoma
[11] = tested on: HS 578T breast
[12] = tested on: MALME-3M melanoma
[13] = tested on: HCC-2998 colon
[14] = tested on: TK-10 renal
[15] = tested on: SN12C renal
[16] = tested on: SK-OV-3 ovarian

Compound	TGI [1] [µM]	TGI [2] [µM]	TGI [3] [µM]	TGI [4] [µM]	TGI [5] [µM]	TGI [6] [µM]	TGI [7] [µM]	TGI [8] [µM]	TGI [9] [µM]	TGI [10] [µM]	TGI [11] [µM]	TGI [12] [µM]	TGI [13] [µM]	TGI [14] [µM]	TGI [15] [µM]	TGI [16] [µM]
O=C(CCCN1CCC2(CC1)C(=O)NC(=O)N2c1ccccc1)c1ccc(F)cc1	> 100	> 100	> 100	> 100	> 100	> 100	> 100	> 100	> 100	> 100	> 100	> 100	> 100	> 100	> 100	> 100
COc1ccc(NC(=O)CC(=O)n2nc(C)c(N=Nc3ccc(C)c(C)c3)c2C)cc1	> 100	> 100	54.8	> 100	> 100	> 100	> 100	> 100	> 100	> 100	97.4	> 100	> 100	> 100	> 100	27.7
Cn1c(=O)n2n(c1=O)Cc1cccc3cccc(c13)C2	> 100	> 100	> 100	> 100	> 100		> 100	> 100	> 100	> 100	> 100	> 100	> 100	> 100	> 100	> 100
N=C(/C=C/c1ccc(-c2cn3cc(/C=C/C(=N)N4CCCC4)ccc3n2)cc1)N1CCCC1	> 100	> 100	> 100	> 100	> 100	> 100	> 100	> 100	> 100	> 100	> 100	> 100	> 100	> 100	> 100	> 100
NS(=O)(=O)c1ccc(NC(=O)c2cc([N+](=O)[O-])cc([N+](=O)[O-])c2)cc1	> 100	> 100	> 100		> 100	> 100	> 100	> 100	> 100	> 100	> 100	57.2		> 100	90.7	> 100
CC[C@@H]1CN2CCC1C[C@@H]2C(O)c1ccnc2ccc(OCCN3CCN(CCOc4ccc5nccc(C(O)[C@@H]6C[C@@H]7CCN6C[C@@H]7CC)c5c4)CC3)cc12 (stereo partly specified)	31.3	21.7		28.8	41.2	36.2	40.9	28.3	8.45	37.2	46.6	54.1	26.2	29.1	28.9	33.2
C[C@H](CCC1=NCCN1)[C@H]1CC[C@H]2[C@@H]3[C@H](O)C[C@@H]4C[C@H](O)CC[C@]4(C)[C@H]3CC[C@]12C	33.5	27.3	27.8	30	26	29.7	24.7	26.4	35.3	29.9	28.5	29.2	28.5	26.7	37	33.1
Cc1ccc(/C=C2\CN(C)CC3C(c4ccc(C)cc4)=C(C#N)C(=O)NC23)cc1 (stereo unspecified)	> 50	> 50		> 50	> 50	> 50	> 50	> 50	> 50	> 50	> 50	> 50	> 50	> 50	> 50	> 50
N#Cc1ncn(-c2ccccc2)c1N	> 100	> 100	> 100	> 100	> 100	> 100	> 100	> 100	> 100	> 100	> 100	> 100	> 100	> 100	> 100	> 100
CCOC(=O)c1c(O)[nH]c(=O)c(CC)c1C	> 100	> 100	> 100	> 100	> 100	> 100	> 100	> 100	> 100	> 100	> 100	> 100	> 100	> 100	> 100	> 100
CC(=O)N1c2ccccc2C(C)(C)OC1C(Cl)(Cl)Cl (stereo unspecified)	> 100	35.5	> 100	> 100	> 100	> 100	81	> 100	33.6	> 100	> 100	> 100	74.2	> 100	> 100	> 100
CNNC1=NS(=O)(=O)c2cc(C)c(Cl)cc2S1	> 10	> 10	0.0901	> 10	> 10	> 10	> 10	> 10	> 10	> 10	> 10	> 10	> 10	> 10	> 10	> 10
O=C(O)C(Cc1ccc2c(c1)CCC2)(Cc1ccc2c(c1)CCC2)C(=O)O	> 100	> 100	> 100	> 100	> 100	> 100	> 100	> 100	> 100	> 100	> 100	> 100	> 100	> 100	> 100	> 100
CN(C)CCN1C(=O)CC[C@@]2(C)C1=CC[C@@H]1[C@@H]2CC[C@@]2(C)[C@H]1CC[C@]2(C)O	> 100	> 100	> 100	> 100	> 100	> 100	> 100	> 100	> 100	> 100	> 100	> 100		> 100	> 100	> 100
O=c1[nH]c2cc(C(F)(F)F)ccc2nc1Cc1ccccc1	83.6	> 100	> 100	> 100	> 100	95.9	> 100	> 100	> 100	> 100	> 100		> 100	> 100		87.4
COC(=O)C1Cc2c([nH]c3ccccc23)C(c2cccc(O)c2)N1 (stereo unspecified)	51.2	> 100	> 100	> 100	> 100	> 100	72	> 100	87.3	83.3	> 100		48.3	> 100	> 100	> 100
Cc1nc(-c2ccccc2)c(C)n2c1nc1ccccc12	> 100	> 100	79.1		98.7	> 100	65.5	> 100	40.6	45.9	> 100	> 100		84	> 100	46.3
CC(=O)OCC1OC(Nc2ccc3nc(C)n(-c4cccc(C)c4)c(=O)c3c2)C(OC(C)=O)C(OC(C)=O)C1OC(C)=O (stereo unspecified)	> 62.5	> 62.5	> 62.5	> 62.5	> 62.5	> 62.5	> 62.5	> 62.5	> 62.5	> 62.5	> 62.5	> 62.5	> 62.5	> 62.5	> 62.5	
Clc1ccccc1/C=C/c1nsc(/C=C/c2ccccc2Cl)n1	> 100	> 100	> 100	> 100	> 100	> 100	> 100	> 100	84.5	> 100	> 100	> 100		78.1	51.5	> 100
O=[N+]([O-])c1ccc(Cl)cc1-n1nc(-c2ccccc2)cc1-c1ccccc1	> 100	> 100	> 100	> 100	> 100		> 100	> 100	> 100	> 100	> 100	> 100	> 100	> 100	> 100	> 100
COC(=O)[C@@H]1C=C[C@@H](C#N)n2c(=O)n(-c3ccccc3)c(=O)n21	93.6	67.1	> 100	> 100	> 100	56.2	> 100	> 100	73.3		> 100		> 100	> 100	95	> 100
CC(C)Nc1[nH]c(C(=O)c2ccccc2)c(N)c1C(=S)Nc1ccccc1	> 100	> 100	> 100	> 100	> 100	> 100	> 100	> 100		52.1	> 100	43.8	46.2	> 100	> 100	> 100
O=S(=O)(c1cc(Cl)ccc1Cl)N1CCN(c2ccc(Cl)c(Cl)c2)CC1	> 100	> 100	> 100	95.9	85.9	39.6	> 100	> 100	> 100		> 100	> 100	> 100	54	> 100	
Cc1ccc(S(=O)(=O)NC(=O)NC(CO)C(=O)O)cc1 (stereo unspecified)	> 100	> 100	> 100	> 100	> 100	> 100	> 100	> 100	> 100	> 100	> 100	> 100		> 100	> 100	> 100
CCOC(=O)c1cccc(NC(=O)CBr)c1	3.51	1.29	1.96	3.09		3.41	4.15	1.88	3.74	3.2	5.28	4.22	5.28	3.18	0.907	3.43
O/N=c1/ccn(O)c2ccccc12	5.4		3.93	2.67	5.74	9.43	3.13	11.3	0.542	3.64	> 100	18.9	0.998	5.87	5.7	3.26
CC(=O)OCCC1c2ccccc2-n2nc(-c3ccccc3)c(O)c21 (stereo unspecified)	43.3	56.3	30.8	45.1	90.6	30.1	33.3	30.4	33.7	96.6	54.9		56	43.2	31.1	
O=C1C(C(O)(C(F)(F)Cl)C(F)(F)Cl)CCC1C(O)(C(F)(F)Cl)C(F)(F)Cl (stereo unspecified)	> 10	> 10		> 10	> 10	> 10	> 10	5.71	> 10	5.72	5.44	> 10	> 10	> 10	> 10	> 10
ClC(Cl)(Cl)C1CCOC1n1nc2ccccc2n1 (stereo unspecified)	> 100	> 100			> 100	> 100	> 100	> 100		> 100	> 100	> 100	> 100	> 100	> 100	> 100
O=[N+]([O-])c1cccc(N=C2c3ccccc3CN2c2cccc([N+](=O)[O-])c2)c1	> 100	> 100	> 100	> 100	> 100	> 100	> 100	> 100	> 100	> 100	> 100		> 100	> 100	> 100	> 100
